Target: T1, recombinant human 5-HT5A receptor (Homo sapiens, UniProt P47898)
T1 construct: expressed in transfected cells; host or cells: HEK-EBNA (Human Embryonic Kidney-EBNA) cells, transient cDNA expression; membranes
Test: [3H]LSD radioligand binding assay, membranes from HEK-EBNA cells transiently expressing 5-HT5A receptors
Details: [3H]LSD approximately 1 nM; HEK-EBNA cell membranes; SPA beads; 120 min at room temperature; Ki from IC50 by Cheng-Prussoff equation
Procedure: A [^3H]LSD radioligand binding assay was used to determine the affinity of the compounds for the recombinant human 5-HT5A receptor, in membranes from transiently (cDNA) expressed 5-HT5A receptors in Human Embryonic Kidney-EBNA (HEK-EBNA) cells. Assay buffer consisted of Tris (50 mM) buffer containing 1 mM EGTA, 10 mM MgCl2 (pH 7.4) and 10 μM pargyline. The binding assay was carried out in 96-well-plates in the presence of [^3H]LSD (approximately 1 nM), approximately 2 μg/well of membrane protein, and 0.5 mg of Ysi-poly-1-lysine SPA beads in a final volume of 200 μl of buffer. Non-specific binding was defined using methiothepin 2 μM. Compounds were tested at 10 concentrations. All assays were conducted in duplicate and repeated at least two times. Assay plates were incubated for 120 min at room temperature before centrifugation. Bound ligand was determined using a Packard Topcount scintillation counter. IC50 values were calculated using a non-linear curve fitting program and Ki values calculated using the Cheng-Prussoff equation.

T1 sequence (P47898 whole entry): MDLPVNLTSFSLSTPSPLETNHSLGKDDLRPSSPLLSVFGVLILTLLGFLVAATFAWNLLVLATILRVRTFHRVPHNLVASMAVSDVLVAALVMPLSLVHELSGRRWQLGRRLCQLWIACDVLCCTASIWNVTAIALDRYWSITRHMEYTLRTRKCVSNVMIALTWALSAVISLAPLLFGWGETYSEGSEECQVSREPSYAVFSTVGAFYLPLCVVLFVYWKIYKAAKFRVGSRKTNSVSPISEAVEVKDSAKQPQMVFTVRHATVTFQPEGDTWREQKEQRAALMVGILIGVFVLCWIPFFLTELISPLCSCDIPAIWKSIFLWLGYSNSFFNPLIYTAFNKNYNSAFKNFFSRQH

For Clc1ccc(Cl)c(C2NC(NC3CCc4ccccc43)=Nc3ccccc32)c1 (stereo in doubt) [Example 19, [4-(2,5-Dichloro-phenyl)-3,4-dihydro-quinazolin-2-yl]-(S)-indan-1-yl-amine], which Ki is on record?
Its Ki is 550 nM.

Which Ki does the source give for Clc1ccc(Cl)c(C2NC(NC3CCc4ccccc43)=Nc3ccccc32)c1 (stereo in doubt) [Example 20, [4-(2,5-Dichloro-phenyl)-3,4-dihydro-quinazolin-2-yl]-(R)-indan-1-yl-amine] here?
Its Ki is 550 nM.

With Clc1ccc2c(c1)C(c1ccccc1Cl)NC(NC1CCc3ccccc31)=N2 (stereo in doubt) [Example 21, [6-Chloro-4-(2-chloro-phenyl)-3,4-dihydro-quinazolin-2-yl]-(S)-indan-1-yl-amine] as the molecule, how does the Ki read?
The Ki was 595 nM.

How did the Ki turn out when Clc1ccc2c(c1)C(c1ccccc1Cl)NC(NC1CCc3ccccc31)=N2 (stereo in doubt) [Example 22, [6-Chloro-4-(2-chloro-phenyl)-3,4-dihydro-quinazolin-2-yl]-(R)-indan-1-yl-amine] was run?
The Ki was 655 nM.

How did the Ki turn out when c1ccc2c(c1)CNC(N[C@@H]1CCc3ccccc31)=N2 [Example 1, (3,4-Dihydro-quinazolin-2-yl)-(R)-indan-1-yl-amine] was run?
Its Ki is 25 nM.

Which Ki does the source give for Clc1cccc2c1CNC(NC1CCc3ccccc31)=N2 (centres unmarked) [Example 2, (5-Chloro-3,4-dihydro-quinazolin-2-yl)-indan-1-yl-amine] here?
The Ki was 32 nM.

With Cc1cccc2c1N=C(NC1CCc3ccccc31)NC2 (centres unmarked) [Example 3, Indan-1-yl-(8-methyl-3,4-dihydro-quinazolin-2-yl)-amine] as the molecule, how does the Ki read?
The Ki was 32 nM.

With Fc1ccc2c(c1)CNC(NC1CCc3ccccc31)=N2 (centres unmarked) [Example 4, (6-Fluoro-3,4-dihydro-quinazolin-2-yl)-indan-1-yl-amine] as the molecule, how does the Ki read?
The Ki was 35 nM.

Which Ki does the source give for Clc1ccc2c(c1Cl)CNC(NC1CCc3ccccc31)=N2 (centres unmarked) [Example 5, (5,6-Dichloro-3,4-dihydro-quinazolin-2-yl)-indan-1-yl-amine] here?
The Ki was 39 nM.

With Fc1cccc2c1CNC(NC1CCc3ccccc31)=N2 (centres unmarked) [Example 6, (5-Fluoro-3,4-dihydro-quinazolin-2-yl)-indan-1-yl-amine] as the molecule, how does the Ki read?
Its Ki is 48 nM.

Cc1ccc2c(c1)CNC(NC1CCc3ccccc31)=N2 (centres unmarked) [Example 7, Indan-1-yl-(6-methyl-3,4-dihydro-quinazolin-2-yl)-amine] was tested. Which Ki did it give?
Its Ki is 50 nM.

How did the Ki turn out when Cc1cccc2c1CNC(NC1CCc3ccccc31)=N2 (centres unmarked) [Example 8, Indan-1-yl-(5-methyl-3,4-dihydro-quinazolin-2-yl)-amine] was run?
Its Ki is 55 nM.

For CC1NC(NC2CCc3ccccc32)=Nc2ccccc21 (centres unmarked) [Example 9, Indan-1-yl-(4-methyl-3,4-dihydro-quinazolin-2-yl)-amine], which Ki is on record?
The Ki was 80 nM.

How did the Ki turn out when CC1NC(NC2CCc3ccccc32)=Nc2cc(Cl)c(Cl)cc21 (centres unmarked) [Example 10, (6,7-Dichloro-4-methyl-3,4-dihydro-quinazolin-2-yl)-indan-1-yl-amine] was run?
The Ki was 71 nM.

With COc1ccc2c(c1)CNC(NC1CCc3ccccc31)=N2 (centres unmarked) [Example 11, Indan-1-yl-(6-methoxy-3,4-dihydro-quinazolin-2-yl)-amine] as the molecule, how does the Ki read?
The Ki was 125 nM.

Which Ki does the source give for Clc1ccc2c(c1)N=C(NC1CCc3ccccc31)NC2 (centres unmarked) [Example 12, (7-Chloro-3,4-dihydro-quinazolin-2-yl)-indan-1-yl-amine] here?
Its Ki is 174 nM.

Which Ki does the source give for FC(F)(F)c1ccc2c(c1)N=C(NC1CCc3ccccc31)NC2 (centres unmarked) [Example 13, Indan-1-yl-(7-trifluoromethyl-3,4-dihydro-quinazolin-2-yl)-amine] here?
The Ki was 260 nM.

With c1ccc(C2NC(NC3CCc4ccccc43)=Nc3ccccc32)cc1 (centres unmarked) [Example 14, Indan-1-yl-(4-phenyl-3,4-dihydro-quinazolin-2-yl)-amine] as the molecule, how does the Ki read?
Its Ki is 310 nM.

How did the Ki turn out when COc1ccc2c(c1)N=C(NC1CCc3ccccc31)NC2 (centres unmarked) [Example 15, Indan-1-yl-(7-methoxy-3,4-dihydro-quinazolin-2-yl)-amine] was run?
Its Ki is 310 nM.

For COc1cc2c(cc1OC)N=C(NC1CCc3ccccc31)NC2 (centres unmarked) [Example 16, (6,7-Dimethoxy-3,4-dihydro-quinazolin-2-yl)-indan-1-yl-amine], which Ki is on record?
Its Ki is 350 nM.

Which Ki does the source give for c1ccc2c(c1)CNC(N[C@H]1CCc3ccccc31)=N2 [Example 17, (3,4-Dihydro-quinazolin-2-yl)-(S)-indan-1-yl-amine] here?
Its Ki is 350 nM.

How did the Ki turn out when Clc1ccc2c(c1)C(c1ccccc1)NC(NC1CCc3ccccc31)=N2 (centres unmarked) [Example 18, (6-Chloro-4-phenyl-3,4-dihydro-quinazolin-2-yl)-indan-1-yl-amine] was run?
The Ki was 410 nM.

With c1ccc2c(c1)CC[C@H]2NC1=Nc2ccccc2C(c2ccsc2)N1 (stereo partly drawn) [Example 23, (R)-Indan-1-yl-(4-thiophen-3-yl-3,4-dihydro-quinazolin-2-yl)-amine] as the molecule, how does the Ki read?
The Ki was 133 nM.

c1ccc2c(c1)CC[C@@H]2NC1=Nc2ccccc2C(c2ccsc2)N1 (stereo partly drawn) [Example 24, (S)-Indan-1-yl-(4-thiophen-3-yl-3,4-dihydro-quinazolin-2-yl)-amine] was tested. Which Ki did it give?
The Ki was 293 nM.

How did the Ki turn out when Cc1noc(C)c1C1NC(N[C@@H]2CCc3ccccc32)=Nc2ccccc21 (stereo partly drawn) [Example 25, [4-(3,5-Dimethyl-isoxazol-4-yl)-3,4-dihydro-quinazolin-2-yl]-(R)-indan-1-yl-amine] was run?
The Ki was 863 nM.

Cc1noc(C)c1C1NC(N[C@H]2CCc3ccccc32)=Nc2ccccc21 (stereo partly drawn) [Example 26, [4-(3,5-Dimethyl-isoxazol-4-yl)-3,4-dihydro-quinazolin-2-yl]-(S)-indan-1-yl-amine] was tested. Which Ki did it give?
The Ki was 1200 nM.
